Measured values: article PMC10377586 (Biomolecules, 2023)

Key:
rat D1 receptor = target: T1, rat D1 receptor (Rattus norvegicus, UniProt P18901); assay: Radioligand binding [3H]SCH23390, rat brain tissue; conditions: for Ki: native rat D1 receptor, read-out: rD1 [3H]SCH23390 Ki ± SEM; for inhibition at 1 µM: read-out: rD1 [3H]SCH23390 % inhibition ± SEM at 1 µM
T1 construct: source of native rat D1 receptor protein; from tissue; host or cells: rat striatum (methods) / rat brain cortical membranes
Procedure: (§1) Rat brain cortical membranes were used as source of native rat D1 receptor protein, and human D2 receptor was recombinantly expressed in HEK293 cells.
Rat striatum tissue was thawed in 50 volumes of ice-cold 50 mM potassium phosphate buffer, pH 7.4, homogenized and centrifuged at 20,000× g for 20 min. The resulting pellet was resuspended in the same quantity of the buffer and centrifuged again for 20 min. Binding experiments were conducted in 96-well microplates in a total volume of 250 μL of appropriate buffers. Reaction mix included 50 μL solution of test compound, 50 μL of radioligand, and 150 μL of tissue suspension (3 mg/mL). [^3H]SCH23390 (spec. act. 81.9 Ci/mmol, PerkinElmer, NET 930) was used for labeling the D1-receptor. For measuring unspecific binding, cis(Z)flupentixol—5 μM was applied. Samples were incubated at 30 °C for 60 min. The incubation was terminated by rapid filtration over glass fiber filters GF/B using a Harvester (PerkinElmer, USA). The radioactivity was measured in MicroBeta TriLux 1450—liquid scintillation counter (PerkinElmer). Each compound was tested in a screening assay in duplicate at final concentrations of 1 µM. Results were expressed as a percent of inhibition of specific binding.

human D2L receptor = human D2L receptor (Homo sapiens, UniProt P14416); assay: Radioligand binding [3H]-raclopride, HEK293 membranes; conditions: HEK293 cells, human D2; read-out: hD2 [3H]-Raclopride Ki ± SEM
Procedure: as §1
HEK293 cells with stable expression of human D2L receptor were maintained at 37 °C in a humidified atmosphere with 5% CO2 and grown in Dulbecco’s Modifier Eagle Medium containing 10% dialyzed fetal bovine serum and 500 µg/mL G418 sulfate. For membrane preparation, cells were subcultured in 150 cm^2 flasks, grown to 90% confluence, washed twice with prewarmed to 37 °C phosphate buffered saline (PBS), and pelleted by centrifugation (200× g) in PBS containing 0.1 mM EDTA and 1 mM dithiothreitol. Prior to membrane preparation, pellets were stored at −80 °C.
Cell pellets were thawed and homogenized in 10 volumes of assay buffer using an Ultra Turrax tissue homogenizer and centrifuged twice at 35,000× g for 15 min at 4 °C. The incubation buffer consisted of 50 mM Tris-HCl, 1 mM EDTA, 4 mM MgCl2, 120 mM NaCl, 5 mM KCl, 1.5 mM CaCl2, and 0.1% ascorbate. Assay was incubated in a total volume of 200 µL in 96-well microtiter plate for 1 h at 37 °C. The process of equilibration was terminated by rapid filtration through Unifilter plate with a 96-well cell harvester and radioactivity retained on the filter was quantified on a Microbeta plate reader (PerkinElmer). For competition studies, the assay samples contained radioligand 2.5 nM [^3H]-raclopride (PerkinElmer). Non-specific binding was defined with 10 µM of haloperidol. Each compound was tested in triplicate at 7 concentrations (10^−10–10^−4 M). The inhibition constants (Ki) were calculated from the Cheng–Prusoff equation [66]. Results were expressed as means of at least two separate experiments.

human A3 (hA3) ARs = target: T2, human A3 (hA3) ARs (Homo sapiens, UniProt P0DMS8); assay: Radioligand binding [3H]PSB-11, CHO cell membranes; conditions: for Ki: CHO cell membranes, read-out: hA3 [3H]PSB-11 Ki ± SEM; for inhibition at 1 µM: read-out: hA3 [3H]PSB-11 % inhibition ± SEM at 1 µM
T2 construct: expressed in transfected cells; host or cells: CHO cells (membranes)
T2 sequence (P0DMS8 1-318): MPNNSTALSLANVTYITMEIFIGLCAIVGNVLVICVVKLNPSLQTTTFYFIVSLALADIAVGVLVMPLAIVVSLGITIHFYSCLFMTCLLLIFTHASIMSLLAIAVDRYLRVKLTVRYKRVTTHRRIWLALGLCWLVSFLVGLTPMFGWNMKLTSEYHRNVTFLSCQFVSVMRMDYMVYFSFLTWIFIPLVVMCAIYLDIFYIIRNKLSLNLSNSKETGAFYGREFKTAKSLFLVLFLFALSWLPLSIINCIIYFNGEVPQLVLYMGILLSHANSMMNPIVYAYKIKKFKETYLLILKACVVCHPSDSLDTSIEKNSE
Procedure: The final compounds were tested in radioligand binding assays to evaluate their affinity for all four ARs subtypes (see Table 2). Rat brain cortical membrane preparations were used as a source of rat A1 (rA1) ARs, and rat brain striatal membrane preparations served as a source of rat A2A (rA2A) ARs. For A2B- and A3AR assays, membrane preparations of Chinese hamster ovary (CHO) cells recombinantly expressing either human A2B (hA2B) or human A3 (hA3) ARs were employed.
Adenosine receptor radioligand binding assays were performed as previously described using rat brain cortical membrane preparations for A1 and rat brain striatal membrane preparations for A2A AR assays. Frozen rat brains (unstripped) were obtained from Pel Freez, Rogers, AR, USA. For assays at human AR subtypes, cell membranes of CHO cells recombinantly expressing the respective receptor were used. The following compounds were employed as radioligands: A1: [^3H]2-chloro-N^6-cyclopentyladenosine ([^3H]CCPA); A2A: [^3H]3-(3-hydroxypropyl)-7-methyl-8-(m-methoxystyryl)-1-propargylxanthine ([^3H]MSX-2); A2B: [^3H]8-(4-(4-(4-chlorophenyl)piperazine-1-sulfonyl)phenyl)-1-propylxanthine ([^3H]PSB-603); A3: [^3H]phenyl-8-ethyl-4-methyl-(8R)-4,5,7,8-tetrahydro-1H-imidazo[2,1-i]purine-5-one ([^3H]PSB-11). Initially, a single high concentration of compound was tested (1 µM). For potent compounds, full concentration–inhibition curves were determined using six to ten different concentrations of test compound spanning three orders of magnitude. At least three independent experiments were performed. Data were analyzed using GraphPad PRISM program version 4.0 or higher (Graph Pad, San Diego, CA, USA).

T1 sequence (P18901 whole entry): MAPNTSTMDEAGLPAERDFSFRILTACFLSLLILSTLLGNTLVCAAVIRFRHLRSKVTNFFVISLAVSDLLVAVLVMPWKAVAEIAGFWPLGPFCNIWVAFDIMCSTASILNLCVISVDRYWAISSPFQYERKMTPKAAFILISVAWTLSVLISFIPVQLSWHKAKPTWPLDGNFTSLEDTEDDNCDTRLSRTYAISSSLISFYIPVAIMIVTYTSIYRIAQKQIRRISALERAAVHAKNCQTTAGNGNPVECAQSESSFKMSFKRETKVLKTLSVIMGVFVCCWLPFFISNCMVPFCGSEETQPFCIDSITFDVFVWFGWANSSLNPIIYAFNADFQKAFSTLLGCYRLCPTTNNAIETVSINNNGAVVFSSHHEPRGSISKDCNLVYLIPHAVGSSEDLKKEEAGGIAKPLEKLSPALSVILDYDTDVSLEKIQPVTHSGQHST
human D2L receptor, sequence (P14416 whole entry): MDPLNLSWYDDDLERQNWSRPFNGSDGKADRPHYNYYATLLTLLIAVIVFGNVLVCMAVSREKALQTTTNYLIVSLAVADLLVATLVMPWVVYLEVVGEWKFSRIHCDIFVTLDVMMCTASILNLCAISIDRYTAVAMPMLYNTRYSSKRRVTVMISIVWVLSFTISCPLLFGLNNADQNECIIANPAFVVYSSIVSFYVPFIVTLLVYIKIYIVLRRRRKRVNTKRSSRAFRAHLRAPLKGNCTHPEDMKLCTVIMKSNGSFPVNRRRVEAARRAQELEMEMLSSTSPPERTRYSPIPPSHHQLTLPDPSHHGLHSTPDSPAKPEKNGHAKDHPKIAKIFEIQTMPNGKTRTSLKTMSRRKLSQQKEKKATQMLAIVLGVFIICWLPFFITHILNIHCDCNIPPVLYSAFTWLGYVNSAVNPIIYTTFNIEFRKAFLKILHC

| Compound | Ki (rat D1 receptor) [µM] | inhibition at 1 µM (rat D1 receptor) [%] | Ki (human D2L receptor) [µM] | melting point [°C] | Ki (human A3 (hA3) ARs) [µM] | inhibition at 1 µM (human A3 (hA3) ARs) [%] |
| --- | --- | --- | --- | --- | --- | --- |
| Cn1c(=O)c2c(nc3n2CCCCN3CCc2ccc(O)c(O)c2)n(C)c1=O [Compound 20b, 10-(3,4-Dihydroxyphenethyl)-1,3-dimethyl-7,8,9,10-tetrahydro-1H-[1, 3]diazepino[2,1-f]purine-2,4(3H,6H)-dione] | > 1 | 15 | 10.7 ± 1.4 | 232 to 235 | > 1 | -2 |
| Cn1c(=O)c2c(nc(NCCc3ccc(O)c(O)c3)n2C)n(C)c1=O [Compound 11a, 8-((3,4-Dihydroxyphenethyl)amino)-1,3,7-trimethyl-3,7-dihydro-1H-purine-2,6-dione] | > 1 | 13 | 25.2 ± 5.97 | 204 to 206 | > 1 | -1 |
